According to ChEMBL document CHEMBL1146484, “Current developments in the discovery and design of new drug candidates from plant natural product leads” (J Nat Prod, 2004):
In brackets after ≈: the same amount, converted by molar mass. Blank lines part the entries; values can stand above or below the molecule they belong to. Activity calls are given as the source filed them. The calls are words filed in the database; no cut-off is given here.

Experiments:
[1] = tested on: Human immunodeficiency virus; experiment: Antiviral activity against HIV; type: functional, organism-based; settings: Human immunodeficiency virus 1
[2] = Inhibition of tubulin polymerization
KB = experiment: Cytotoxicity against human KB cells; type: functional; settings: for IC50: read-out: ID50 (the source's name); for CC50: read-out: LD50 (the source's name); for EC50: read-out: ED50 (the source's name)
[3] = target: DNA topoisomerase 2-alpha (Homo sapiens) (UniProt P11388); experiment: Inhibition of topoisomerase 2
CAKI-1 = experiment: Cytotoxicity against human Caki1 cells; type: functional; settings: read-out: ED50 (the source's name)
MCF7 = experiment: Cytotoxicity against human MCF7 cells; type: functional; settings: for EC50: read-out: ED50 (the source's name)
[4] = target: DNA topoisomerase 2-alpha (Homo sapiens) (UniProt P11388); experiment: Inhibition of human DNA topoisomerase 2 assessed as DNA cleavage at 20 uM
[5] = target: DNA topoisomerase 2-alpha (Homo sapiens) (UniProt P11388); experiment: Inhibition of human DNA topoisomerase 2
A549 = experiment: Cytotoxicity against human A549 cells; type: functional; settings: read-out: ED50 (the source's name)
SK-MEL-2 = experiment: Cytotoxicity against human SK-MEL-2 cells; type: functional; settings: read-out: ED50 (the source's name)
HCT-8 = experiment: Cytotoxicity against human HCT8 cells; type: functional; settings: read-out: ED50 (the source's name)
Mus musculus = experiment: Toxicity in ip dosed nude mouse; type: organism-based; settings: in vivo
[6] = Cytotoxicity against human renal cancer cells; type: functional; settings: Cancer cell lines
[7] = Cytotoxicity against human melanoma cells; type: functional; settings: Melanoma cell
[8] = Cytotoxicity against human NCI60 cells; type: functional; settings: for TGI: read-out: pGI100 (converted)
RPMI-7951 = experiment: Cytotoxicity against human RPMI7951 cells; type: functional; settings: read-out: ED50 (the source's name)
MOLT-4 = experiment: Cytotoxicity against human MOLT4 cells; type: functional

DNA topoisomerase 2-alpha (Homo sapiens), sequence (P11388 whole entry): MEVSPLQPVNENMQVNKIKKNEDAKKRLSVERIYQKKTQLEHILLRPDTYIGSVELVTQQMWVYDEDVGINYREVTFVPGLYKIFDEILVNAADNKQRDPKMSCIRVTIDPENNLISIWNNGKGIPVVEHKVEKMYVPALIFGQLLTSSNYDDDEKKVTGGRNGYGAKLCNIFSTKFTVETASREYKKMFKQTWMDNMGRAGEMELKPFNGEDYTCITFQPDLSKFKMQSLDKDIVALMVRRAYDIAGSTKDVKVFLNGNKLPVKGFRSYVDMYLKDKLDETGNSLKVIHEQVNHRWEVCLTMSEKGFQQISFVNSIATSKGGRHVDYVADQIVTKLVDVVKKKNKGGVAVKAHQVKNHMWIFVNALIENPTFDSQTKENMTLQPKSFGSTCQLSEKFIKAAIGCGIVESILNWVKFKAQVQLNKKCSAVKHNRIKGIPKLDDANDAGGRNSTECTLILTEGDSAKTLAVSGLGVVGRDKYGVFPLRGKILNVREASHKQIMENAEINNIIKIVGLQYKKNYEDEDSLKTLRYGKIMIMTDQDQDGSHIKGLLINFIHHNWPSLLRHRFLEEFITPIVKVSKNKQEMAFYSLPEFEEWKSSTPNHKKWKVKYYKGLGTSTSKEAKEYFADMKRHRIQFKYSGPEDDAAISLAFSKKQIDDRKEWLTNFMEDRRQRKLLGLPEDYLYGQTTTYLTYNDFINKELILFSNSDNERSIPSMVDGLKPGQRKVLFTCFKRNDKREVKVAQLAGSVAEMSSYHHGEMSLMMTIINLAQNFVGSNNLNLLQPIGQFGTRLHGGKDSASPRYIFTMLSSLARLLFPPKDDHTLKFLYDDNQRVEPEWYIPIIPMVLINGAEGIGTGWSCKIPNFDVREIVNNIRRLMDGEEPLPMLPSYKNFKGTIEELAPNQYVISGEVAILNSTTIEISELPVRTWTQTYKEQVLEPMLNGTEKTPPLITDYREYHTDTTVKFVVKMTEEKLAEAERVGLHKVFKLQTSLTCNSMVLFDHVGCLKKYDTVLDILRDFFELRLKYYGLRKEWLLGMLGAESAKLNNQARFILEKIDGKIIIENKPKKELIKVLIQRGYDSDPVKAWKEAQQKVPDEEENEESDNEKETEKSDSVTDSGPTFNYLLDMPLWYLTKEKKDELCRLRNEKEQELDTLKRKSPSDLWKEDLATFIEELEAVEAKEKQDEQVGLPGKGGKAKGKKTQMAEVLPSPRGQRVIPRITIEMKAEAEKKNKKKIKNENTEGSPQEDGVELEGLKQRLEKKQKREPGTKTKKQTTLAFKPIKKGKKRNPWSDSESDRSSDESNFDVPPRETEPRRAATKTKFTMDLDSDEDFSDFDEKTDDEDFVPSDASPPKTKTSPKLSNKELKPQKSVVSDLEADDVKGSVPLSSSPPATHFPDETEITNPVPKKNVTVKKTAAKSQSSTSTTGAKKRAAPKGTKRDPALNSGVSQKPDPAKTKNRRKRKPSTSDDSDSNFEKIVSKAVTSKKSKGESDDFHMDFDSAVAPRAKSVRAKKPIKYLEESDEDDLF

SMILES: COc1cc2c(c(OC)c1OC)-c1ccc(SC)c(=O)cc1C(=O)CC2 [THIOCOLCHICONE]
- IC50 [2]: 560 nM

SMILES: C=C(C)[C@@H]1CC[C@]2(C(=O)O)CC[C@]3(C)[C@H](CC[C@@H]4[C@@]5(C)CC[C@H](OC(=O)CC(C)(C)C(=O)O)C(C)(C)[C@@H]5CC[C@]43C)[C@@H]12 [BEVIRIMAT]
- EC50 [1]: < 0.35 nM

SMILES: COc1cc([C@@H]2c3cc4c(cc3[C@@H](O[C@@H]3O[C@@H]5CO[C@@H](C)O[C@H]5[C@H](O)[C@H]3O)[C@H]3COC(=O)[C@H]23)OCO4)cc(OC)c1O [ETOPOSIDE]
- IC50 (KB): 200 nM
- CC50 (KB): 3000 nM
- IC100 [3]: 100 µM

SMILES: COc1cc([C@@H]2c3cc4c(cc3[C@@H](Nc3ccccc3)[C@H]3COC(=O)[C@H]23)OCO4)cc(OC)c1O
- inhibition [4]: 125%
- ID50 [5]: 50000 nM

SMILES: COc1cccc([C@@H]2CC(=O)c3cc(N4CCCC4)ccc3N2)c1
- EC50 (A549): 0.008 µg/mL (≈ 0.0248 µM)
- EC50 (CAKI-1): 0.008 µg/mL (≈ 0.0248 µM)
- EC50 (SK-MEL-2): 0.008 µg/mL (≈ 0.0248 µM)
- EC50 (MCF7): 0.008 µg/mL (≈ 0.0248 µM)
- EC50 (KB): 0.008 µg/mL (≈ 0.0248 µM)
- EC50 (HCT-8): 0.008 µg/mL (≈ 0.0248 µM)

SMILES: CC[C@@]1(O)C(=O)OCc2c1cc1n(c2=O)Cc2c-1nc1ccccc1c2/C=N/c1ccccc1N[C@@H]1c2cc3c(cc2[C@@H](c2cc(OC)c(O)c(OC)c2)[C@H]2C(=O)OC[C@@H]21)OCO3
- LD50 (Mus musculus): > 50 mg/kg/day

SMILES: O=c1cc(-c2ccccc2F)[nH]c2ccc(N3CCCC3)cc12
- GI50 [6]: 22.4 nM
- GI50 [7]: ≤ 10 nM

SMILES: Cc1cnc2[nH]c(-c3cccc(Cl)c3)cc(=O)c2c1
- GI50 [8]: 269 nM
- TGI [8]: 72400 nM

SMILES: COC(=O)[C@@]12OC[C@]34[C@H](OC(=O)C[C@@H]13)[C@H](OC(=O)C=C(C)C)[C@H]1C(C)=C(O[C@@H]3O[C@H](CO)[C@@H](O)[C@H](O)[C@H]3O)C(=O)C[C@]1(C)[C@H]4[C@@H](O)[C@@H]2O [BRUCEOSIDE C]
- EC50 (KB): < 0.1 µg/mL
- EC50 (RPMI-7951): < 0.1 µg/mL

SMILES: Cc1ccc2c(=O)cc(-c3cccc(F)c3)[nH]c2n1
- GI50 [8]: 269 nM
- TGI [8]: 72400 nM

SMILES: COc1cccc(-c2cc(=O)c3ccc(C)nc3[nH]2)c1
- GI50 [8]: 269 nM
- TGI [8]: 72400 nM

SMILES: COc1cc2c(c(OC)c1OC)-c1ccc(OC)c(=O)cc1[C@@H](NC(C)=O)CC2 [COLCHICINE]
- IC50 [2]: 650 nM

SMILES: Cc1cnc2[nH]c(-c3cccc(F)c3)cc(=O)c2c1
- GI50 [8]: 269 nM
- TGI [8]: 72400 nM

SMILES: COc1cc([C@@H]2c3cc4c(cc3[C@@H](Nc3ccc(F)cc3)[C@H]3COC(=O)[C@H]23)OCO4)cc(OC)c1O
- inhibition [4]: 139%
- ID50 [5]: 50000 nM

SMILES: COc1cc([C@@H]2c3cc4c(cc3[C@@H](Nc3ccc(NC(=O)c5cc([N+](=O)[O-])cn5C)cc3)[C@H]3COC(=O)[C@H]23)OCO4)cc(OC)c1O
- GI50 (MOLT-4): < 10 nM
- GI50 (MCF7): < 10 nM
- IC50 (KB): 40 nM
- CC50 (KB): 150 nM
- IC100 [3]: 12.5 µM

Further lines, with some results ahead:

- EC50 [1]: 1300 nM
SMILES: CC(=O)O[C@@H]1[C@H](OC(=O)CC(C)C)c2c(ccc3ccc(=O)oc23)OC1(C)C [SUKSDORFIN]

- EC50 [1]: 0.5 µg/mL
SMILES: COc1c2c(cc3c1-c1c(cc4c(c1OC)OCO4)[C@H](OC(=O)c1ccccc1)[C@@](C)(O)[C@@H](C)C3)OCO2 [SCHISANTHERIN D]

- EC50 [1]: 0.0039 µg/mL
SMILES: CC1(C)CC[C@]2(C(=O)O)CC[C@]3(C)C(=CC[C@@H]4[C@@]5(C)CC[C@H](OC(=O)CC(C)(C)C(=O)O)C(C)(C)[C@@H]5CC[C@]43C)[C@H]2C1

- Activity [3]: Active
SMILES: CC(=O)N[C@H]1CCc2cc(O)c(O)c(O)c2-c2ccc(NC(=O)c3ccc(Cl)cc3)c(=O)cc21
- EC50 (CAKI-1): 0.98 µg/mL (≈ 2.04 µM)
- EC50 (MCF7): 0.48 µg/mL (≈ 0.998 µM)

- EC50 [1]: < 0.1 µg/mL
SMILES: CC1(C)C=C2[C@H]3CC[C@@H]4[C@@]5(C)CCC(=O)C(C)(C)[C@@H]5CC[C@@]4(C)[C@]3(C)CC[C@@]2(C(=O)O)CC1 [MORONIC ACID]

- Activity [3]: Active
SMILES: CNc1ccc2c(cc1=O)[C@@H](NC(C)=O)CCc1cc(O)c(O)c(O)c1-2
- EC50 (CAKI-1): 0.72 µg/mL (≈ 2.02 µM)
- EC50 (MCF7): 0.36 µg/mL (≈ 1.01 µM)

- EC50 [1]: 0.8 µg/mL
SMILES: COc1cc2c(c(OC)c1OC)-c1c(cc3c(c1OC)OCO3)C[C@@H](C)[C@@H](C)C2 [KADSURANIN]

- EC50 [1]: 1.2 µg/mL
SMILES: COc1c2c(cc3c1-c1c(cc4c(c1OC)OCO4)C[C@H](C)[C@H](C)C3)OCO2 [SCHISANDRIN C]

- EC50 [1]: 1.7 µg/mL
SMILES: CC1(C)CC[C@]2(C(=O)O)CC[C@]3(C)C(=CC[C@@H]4[C@@]5(C)CC[C@H](O)C(C)(C)[C@@H]5CC[C@]43C)[C@@H]2C1 [OLEANOLIC_ACID]

- IC50 [2]: 560 nM
SMILES: COc1cc2c(c(OC)c1OC)-c1ccc(SC)c(=O)cc1[C@@H](OC(=O)c1ccncc1)CC2

- IC50 [2]: 560 nM
SMILES: COc1cc2c(c(OC)c1OC)-c1ccc(SC)c(=O)cc1[C@@H](O)CC2

- EC50 [1]: 0.4 nM
SMILES: CC1(C)Oc2ccc3ccc(=O)oc3c2[C@@H](OC(=O)C23CCC(C)(C(=O)O2)C3(C)C)[C@H]1OC(=O)C12CCC(C)(C(=O)O1)C2(C)C (stereo partly drawn)

- EC50 [1]: 0.006 µg/mL
SMILES: COc1cc2c(c(OC)c1OC)-c1c(cc3c(c1OC)OCO3)[C@H](OC(=O)c1ccccc1)[C@@](C)(O)[C@@H](C)C2 [GOMISIN G]

- EC50 [1]: 0.00016 nM
SMILES: Cc1cc(=O)oc2c3c(ccc12)OC(C)(C)[C@H](OC(=O)C12CCC(C)(C(=O)O1)C2(C)C)[C@@H]3OC(=O)C12CCC(C)(C(=O)O1)C2(C)C (stereo partly drawn)

- IC50 [2]: 560 nM
SMILES: COc1cc2c(c(OC)c1OC)-c1ccc(SC)c(=O)cc1[C@@H](OC(C)=O)CC2
